Data set [1] relates to Septoria tritici. Kind of data set: Fungicidal activity: leaf blotch of wheat, one-day protectant and three-day curative tests on wheat plants. Format: in vivo. Particulars: Zymoseptoria tritici. On the procedure: Example 16: Evaluation of Fungicidal Activity: Leaf Blotch of Wheat (Mycosphaerella graminicola; anamorph: Septoria tritici; Bayer code SEPTTR)
Wheat plants (variety Yuma) were grown from seed in a greenhouse in 50% mineral soil/50% soil-less Metro mix until the first leaf was fully emerged, with 7-10 seedlings per pot. These plants were inoculated with an aqueous spore suspension of Septoria tritici either prior to or after fungicide treatments. After inoculation the plants were kept in 100% relative humidity (one day in a dark dew chamber followed by two to three days in a lighted dew chamber) to permit spores to germinate and infect the leaf. The plants were then transferred to a greenhouse for disease to develop.
The following tables present the activity of typical compounds of the present disclosure when evaluated in these experiments. The effectiveness of the test compounds in controlling disease was determined by assessing the severity of disease on treated plants, then converting the severity to percent control based on the level of disease on untreated, inoculated plants.
The following table presents the activity of typical compounds of the present disclosure when evaluated in these experiments. The effectiveness of the test compounds in controlling disease was determined by assessing the severity of disease on treated plants, then converting the severity to percent control based on the level of disease on untreated, inoculated plants.

[2] abbreviates: 24 h, One-Day Protectant (1 DP), 100 ppm, wheat plants (variety Yuma), read-out: SEPTTR 100 PPM 1 DP (% Disease Control rating).
Setting [3] is: 72 h, Three-Day Curative (3 DC), 100 ppm, wheat plants (variety Yuma), read-out: SEPTTR 100 PPM 3 DC (% Disease Control rating).
The mark [4] stands for this setting: 24 h, read-out: SEPTTR 100 PPM 1 DP (% Disease Control rating).
Setting [5] is: 72 h, read-out: SEPTTR 100 PPM 3 DC (% Disease Control rating).

Structures are written as SMILES. Read-outs that look alike come from different tables or passages of the source.

For the compound `C/N=c1\c(F)cn(S(=O)(=O)c2ccc(C)cc2)c(=O)n1C` [Compound F3], the melting point (in general, the temperature, or range, at which the solid turns liquid) fell in the range of 117 to 123 °C. For the same compound, in data set [1] (setting [2]), the pest or weed control at 100 ppm was in the range of 76 to 100%. Moreover, the pest or weed control at 100 ppm in data set [1] (setting [3]) lay in the range of 51 to 75%.
`C/N=c1\c(F)cn(S(=O)(=O)c2ccc(Cl)cc2)c(=O)n1C` [Compound F5] yielded a melting point of 130 to 134 °C. In addition, the pest or weed control at 100 ppm in data set [1] (setting [2]) lay in the range of 76 to 100%. Moreover, in data set [1] (setting [3]), the pest or weed control at 100 ppm fell in the range of 76 to 100%.
Turning to `C/N=c1\c(F)cn(S(=O)(=O)c2ccc(C)c(Cl)c2)c(=O)n1C` [Compound F10], the melting point lay within 149.4 to 151 °C. Also, the pest or weed control at 100 ppm in data set [1] (setting [2]) is 76 to 100%. In data set [1] (setting [3]), the pest or weed control at 100 ppm fell in the range of 51 to 75%.
In the same order, the values of `C/N=c1\c(F)cn(S(=O)(=O)c2ccc(OC(F)(F)F)cc2)c(=O)n1C` [Compound F6] are 139.2 to 140 °C, 76 to 100% and 76 to 100%.
The corresponding values for `Cc1ccc(S(=O)(=O)n2cc(F)/c(=N\C(=O)c3ccccc3)n(C(=O)c3ccccc3)c2=O)cc1` [Compound F37, (E)-N-(3-benzoyl-5-fluoro-2-oxo-1-tosyl-2,3-dihydropyrimidin-4(1H)-ylidene)benzamide] are 180.8 to 182.2 °C, 0 to 25% and 0 to 25%.
In the same order, the values of `C/N=c1\c(F)cn(S(=O)(=O)c2cccc(F)c2)c(=O)n1C` [Compound F14] are 137.3 to 138.9 °C, 76 to 100% and 51 to 75%.
`C/N=c1\c(F)cn(S(=O)(=O)c2ccccc2)c(=O)n1C` [Compound F2] gave a melting point of 142 to 144 °C. For the same compound, the pest or weed control at 100 ppm in data set [1] (setting [2]) is 76 to 100%. In addition, the pest or weed control at 100 ppm in data set [1] (setting [3]) fell in the range of 51 to 75%.
Take `COc1ccc(S(=O)(=O)n2cc(F)/c(=N\Cc3ccccc3F)n(C)c2=O)cc1` [Compound F53, 5-fluoro-4-((2-fluorobenzyl)imino)-1-((4-methoxyphenyl)sulfonyl)-3-methyl-3,4-dihydropyrimidin-2(1H)-one]: the melting point lay within 188 to 191 °C. In data set [1] (setting [2]), the pest or weed control at 100 ppm is 0 to 25%. Further, in data set [1] (setting [3]), the pest or weed control at 100 ppm was 0 to 25%.
For the compound `CC(C)c1ccc(S(=O)(=O)n2cc(F)/c(=N\C(=O)Oc3ccccc3)n(C)c2=O)cc1` [Compound F41], the melting point was in the range of 180 to 181 °C. Besides, in data set [1] (setting [4]), the pest or weed control at 100 ppm lay in the range of 0 to 25%. In addition, the pest or weed control at 100 ppm in data set [1] (setting [5]) was in the range of 0 to 25%.
In turn, `COC(=O)/N=c1\c(F)cn(S(=O)(=O)c2cc(Cl)sc2Cl)c(=O)n1C` [Compound F51] showed a melting point of 148 to 149 °C. In addition, the pest or weed control at 100 ppm in data set [1] (setting [2]) lay within 0 to 25%. Further, in data set [1] (setting [3]), the pest or weed control at 100 ppm lay in the range of 0 to 25%.
In turn, `CC(=O)/N=c1\c(F)cn(S(=O)(=O)c2ccccc2)c(=O)n1C` [Compound F30] showed a melting point of 174 °C. Further, the pest or weed control at 100 ppm in data set [1] (setting [2]) is 76 to 100%. Besides, the pest or weed control at 100 ppm in data set [1] (setting [3]) was 76 to 100%.
Turning to `COC(=O)/N=c1\c(F)cn(S(=O)(=O)c2cc(C)c(Cl)cc2C)c(=O)n1C` [Compound F50], the melting point is 178 to 179 °C. For the same compound, the pest or weed control at 100 ppm in data set [1] (setting [2]) lay within 0 to 25%. Further, the pest or weed control at 100 ppm in data set [1] (setting [3]) was 0 to 25%.
In turn, `CC(=O)/N=c1\c(F)cn(S(=O)(=O)c2cc(Cl)sc2Cl)c(=O)n1C` [Compound F36] registered a melting point of 154 °C. For the same compound, in data set [1] (setting [2]), the pest or weed control at 100 ppm fell in the range of 76 to 100%. Moreover, the pest or weed control at 100 ppm in data set [1] (setting [3]) fell in the range of 51 to 75%.
The corresponding values for `CC(=O)/N=c1\c(F)cn(S(=O)(=O)c2cccc(C)c2)c(=O)n1C` [Compound F34] are 164 °C, 76 to 100% and 0 to 25%.
As to `COC(=O)/N=c1\c(F)cn(S(=O)(=O)c2ccccc2)c(=O)n1C` [Compound F45], the melting point lay in the range of 185 to 186 °C. For the same compound, the pest or weed control at 100 ppm in data set [1] (setting [2]) lay within 0 to 25%. In data set [1] (setting [3]), the pest or weed control at 100 ppm is 0 to 25%.
As for `C/N=c1\c(F)cn(S(=O)(=O)c2sc(C)nc2C)c(=O)n1C` [Compound F23], the pest or weed control at 100 ppm in data set [1] (setting [2]) is 26 to 50%; in data set [1] (setting [3]), 76 to 100%.
The compound `CC(C)c1ccc(S(=O)(=O)n2cc(F)/c(=N\Cc3ccccc3F)n(C)c2=O)cc1` [Compound F56] had a melting point of 140 to 143 °C. In addition, the pest or weed control at 100 ppm in data set [1] (setting [2]) lay in the range of 0 to 25%. Further, the pest or weed control at 100 ppm in data set [1] (setting [3]) is 0 to 25%.
Consider `CC(=O)/N=c1\c(F)cn(S(=O)(=O)c2cc(C)c(Cl)cc2C)c(=O)n1C` [Compound F35], for which the melting point was found to be 173 °C. The pest or weed control at 100 ppm in data set [1] (setting [2]) fell in the range of 76 to 100%. The pest or weed control at 100 ppm in data set [1] (setting [3]) lay in the range of 26 to 50%.
Turning to `Cc1ccc(S(=O)(=O)n2cc(F)/c(=N\C(=O)Oc3ccccc3)n(C)c2=O)cc1` [Compound F39], the melting point was in the range of 200 to 202 °C. The pest or weed control at 100 ppm in data set [1] (setting [4]) lay in the range of 26 to 50%. In addition, the pest or weed control at 100 ppm in data set [1] (setting [5]) lay within 26 to 50%.
In turn, `Cc1cccc(S(=O)(=O)n2cc(F)/c(=N\C(=O)Oc3ccccc3)n(C)c2=O)c1` [Compound F42] gave a melting point of 187 to 188 °C. In addition, the pest or weed control at 100 ppm in data set [1] (setting [4]) fell in the range of 76 to 100%. The pest or weed control at 100 ppm in data set [1] (setting [5]) is 0 to 25%.
In the case of `[2H]C([2H])([2H])/N=c1\c(F)cn(S(=O)(=O)c2ccc(OC)cc2)c(=O)n1C([2H])([2H])[2H]` [Compound F63, 5-fluoro-1-((4-methoxyphenyl)sulfonyl)-3-trideuteriomethyl-4-(trideuteriomethylimino)-3,4-dihydropyrimidin-2(1H)-one], the pest or weed control at 100 ppm in data set [1] (setting [2]) and in data set [1] (setting [3]) was 0 to 25% each time.
Compound `C/N=c1\c(F)cn(S(=O)(=O)C2CC2)c(=O)n1C` [Compound F28] registered a melting point of 102.2 to 104 °C. Moreover, the pest or weed control at 100 ppm in data set [1] (setting [2]) was in the range of 0 to 25%. In data set [1] (setting [3]), the pest or weed control at 100 ppm lay within 51 to 75%.
The corresponding values for `C/N=c1\c(F)cn(S(=O)(=O)c2ccc(OC)c(F)c2)c(=O)n1C` [Compound F13] are 138.9 to 140.3 °C, 76 to 100% and 76 to 100%.
In the same order, the values of `C/N=c1\c(F)cn(S(=O)(=O)c2cccc(OC)c2)c(=O)n1C` [Compound F12] are 111.4 to 112 °C, 76 to 100% and 76 to 100%.
In the same order, the values of `C/N=c1\c(F)cn(S(=O)(=O)c2c(C)noc2C)c(=O)n1C` [Compound F19] are 130.1 to 131.1 °C, 0 to 25% and 51 to 75%.
`Cc1cc(S(=O)(=O)n2cc(F)/c(=N\C(=O)Oc3ccccc3)n(C)c2=O)c(C)cc1Cl` [Compound F43] displayed a melting point of 209 to 211 °C. The pest or weed control at 100 ppm in data set [1] (setting [4]) fell in the range of 0 to 25%. Also, the pest or weed control at 100 ppm in data set [1] (setting [5]) was 0 to 25%.
Take `C/N=c1\c(F)cn(S(=O)(=O)c2ccc(F)cc2Cl)c(=O)n1C` [Compound F21]: the melting point lay in the range of 109 to 112 °C.
As for `Cc1ccc(S(=O)(=O)n2cc(F)/c(=N/C(=O)C(C)C)n(COC(=O)C(C)C)c2=O)cc1` [Compound F25, Z)-(5-fluoro-6-(isobutyrylimino)-2-oxo-3-tosyl-2,3-dihydropyrimidin-1(6H)-yl)methyl isobutyrate], the pest or weed control at 100 ppm in data set [1] (setting [2]) was in the range of 0 to 25%; in data set [1] (setting [3]), 76 to 100%.
The corresponding values for `[2H]C([2H])([2H])/N=c1\c(F)cn(S(=O)(=O)c2ccccc2)c(=O)n1C([2H])([2H])[2H]` [Compound F61, 5-fluoro-1-(phenylsulfonyl)-3-trideuteriomethyl-4-(trideuteriomethylimino)-3,4-dihydropyrimidin-2(1H)-one] are 0 to 25% and 0 to 25%.
Turning to `C/N=c1\c(F)cn(S(=O)(=O)c2cccs2)c(=O)n1C` [Compound F4], the melting point was 136 to 138 °C. The pest or weed control at 100 ppm in data set [1] (setting [2]) is 76 to 100%. In data set [1] (setting [3]), the pest or weed control at 100 ppm was in the range of 76 to 100%.
Turning to `C/N=c1\c(F)cn(S(=O)(=O)c2cc(C)c(Cl)cc2C)c(=O)n1C` [Compound F22], the pest or weed control at 100 ppm in data set [1] (setting [2]) and in data set [1] (setting [3]) was 76 to 100% in each case.
Turning to `COc1ccc(S(=O)(=O)n2cc(F)/c(=N/C(C)=O)n(C)c2=O)cc1` [Compound F26], the pest or weed control at 100 ppm in data set [1] (setting [2]) and in data set [1] (setting [3]) was 76 to 100% each time.
`[2H]C([2H])([2H])/N=c1\c(F)cn(S(=O)(=O)c2ccc(C)cc2)c(=O)n1C([2H])([2H])[2H]` [Compound F62, 5-fluoro-1-((4-methylphenyl)sulfonyl)-3-trideuteriomethyl-4-(trideuteriomethylimino)-3,4-dihydropyrimidin-2(1H)-one]: the pest or weed control at 100 ppm in data set [1] (setting [2]) and in data set [1] (setting [3]) was 0 to 25% in each case.
Take `COc1ccc(S(=O)(=O)n2cc(F)/c(=N\C(C)=O)n(C)c2=O)cc1` [Compound F31, N-(5-fluoro-1-((4-methoxyphenyl)sulfonyl)-3-methyl-2-oxo-2,3-dihydropyrimidin-4(1H)-ylidene)acetamide]: the pest or weed control at 100 ppm in data set [1] (setting [2]) and in data set [1] (setting [3]) was 76 to 100% each time.

Values taken from patent US10059703B2, “3-alkyl-5-fluoro-4-substituted-imino-3,4-dihydropyrimidin-2(1H)-one derivatives as fungicides” (Adama Makhteshim Ltd., priority 2012, dated 2018).
